Results taken from ChEMBL document CHEMBL3507680, “University of Dundee, Gates Library screen for HepG2 cell viability”.

Assay: Human HepG2 cell viability assay in 384 well format
Type: toxicity, cell-based
Design: dose 125 nL, time 70.5 hour; cytotoxicity at 70.5 h: concentration not given beside the values
Details: HepG2 cells, read-out: Inhibition

Compound | cytotoxicity at 70.5 h
COc1cccc(C(=O)N2CCN(C(=O)CCn3ccnc3)CC2)c1 | -5.33%
CC(C)c1nc(CN(C)Cc2ccc(F)cc2)cs1 | -22.4%
COc1ccc(OCc2nc(C(=O)N3C[C@H](O)[C@@H](N(C)C)C3)co2)cc1 | -4.57%
CN(C)CCNC(=O)c1cc2n(n1)CCN(C(=O)c1ccc[nH]1)C2 | -7.1%
CN(CC1CCCN1C)c1nccc(C2CCCC2)n1 (stereo not given) | 6.3%
CC(C)n1cnnc1CN(C)C(=O)c1cnn2ccccc12 | 4.09%
Cn1ncc2c(N3CCN(CCO)CC3)nc(C3CCCC3)nc21 | -14.2%
CCOC(=O)N1CCN(C(=O)C(CC)n2cccn2)CC1 (stereo not given) | 5.86%
CSc1nccc(N2CCC3(CCCN(CC4CC4)C3)C2)n1 (stereo not given) | -3.08%
O=C1CCCCN1CCC(=O)N1CCCCC1c1ccc(F)cc1 (stereo not given) | -6.63%
Cc1ccccc1C(=O)N1C[C@@H]2[C@@H](CN(C)CCc3ccccn3)[C@@H]2C1 | -8.54%
O=C(N1CCC(Oc2ccncc2)CC1)C1(c2ccc(F)cc2)CC1 | -3.22%
CN1C(=O)C2(CCN(c3nccc4occc34)CC2)c2ccccc21 | 9.71%
COc1ccc(-n2ncc(C(C)NCc3cnc(SC)nc3)c2C)cc1 (stereo not given) | -3.63%
O=C(CC1=CCCCC1)N1CCC(Cn2cc(CCO)nn2)CC1 | -11.5%
COCCN1CCN(C(C(=O)O)c2ccc(SC)cc2)CC1 (stereo not given) | -5.21%
CCCn1ncc(CN2CCCCC2CCCOC)c1C (stereo not given) | -2.59%
Cc1nc(C(C)NC(=O)COc2ccc(F)cc2)n[nH]1 (stereo not given) | -7.22%
COCc1cc(NCC(F)(F)F)n2nccc2n1 | -12.3%
CCCC(=O)Nc1cccc(C(=O)N(C)CCCC2CCCO2)c1 (stereo not given) | 2.48%
CC(Cn1cccn1)n1cnc2cccc(Cl)c2c1=O (stereo not given) | 7.81%
CCN(Cc1cnn(C)c1)C[C@H]1CC[C@@H](Cc2ccc(OC)nc2)O1 | -8.42%
COc1ccc(Oc2ncccc2F)cc1CN1CCCC1 | 3.51%

Compound | cytotoxicity at 70.5 h
CN(CC(=O)N1CC(C)(C)[C@](O)(C2CC2)C1)Cc1cccnc1 | -3.42%
O=C(O)Cc1cccc(-n2ccnc2-c2ccc(F)c(Cl)c2)c1 | -0.808%
CC(C)n1cnnc1CN(C)C(=O)c1ccccc1N1CCOCC1 | 9.11%
O=C(c1cccnc1SC/C=C/c1ccccc1)N1CCOCC(O)C1 (stereo not given) | 1.08%
CCCn1cc(S(=O)(=O)N[C@H]2CN(CC(N)=O)C[C@@H]2C2CC2)cn1 | -9.29%
Cc1cccnc1[C@H](C)NC(=O)Cc1cc2c(cc1Cl)OCCO2 | 32.1%
O=c1cc(C2CCNCC2)nc(CCCc2ccccc2)[nH]1 | -3.39%
CC(=O)c1cc(C(=O)N2CCC3(CC2)Nc2ccccc2NC3=O)cs1 | -7.09%
Cc1nc2c(c(NC3CCN(Cc4cccnc4)CC3)n1)CCNCC2 | -18.8%
COCCN(C)C[C@@H]1CN(C(=O)c2c(C)cccc2OC)C[C@@H]1CO | -4.17%
Cc1ccc2nc(CN3CCCC3c3cccnc3)cc(O)c2c1 (stereo not given) | -2.21%
Cc1noc(CN2CC(=O)N(C)c3ccccc3C2=O)n1 | -8.97%
Nc1nc2c(c(NC3CCCC3)n1)CCN(C(=O)C1CCOC1)CC2 (stereo not given) | 11.4%
O=C(CCc1ccccc1)C1CCCN(C(=O)c2cncc(Cl)c2)C1 (stereo not given) | -25.5%
CCc1cnc(N)nc1NCc1ccc(OC)c(OC)c1 | -1.08%
Cc1ccc(C(=O)O)c(N2CC(C)(C)[C@@](C)(O)C2)n1 | -10.6%
Cc1cc(N2CCOC(C(F)(F)F)C2)nc(-c2ccccc2)n1 (stereo not given) | -24.8%
Cc1ccsc1C(CNC(=O)c1cc(=O)c2ccccc2[nH]1)N(C)C (stereo not given) | -9.06%
O=C(NCc1nc[nH]n1)c1cc(COc2ccccc2F)[nH]n1 | -3.89%
O=C(O)[C@@H]1CN(CCOCCO)C[C@H]1c1ccccc1 | 30%
COCCN(Cc1nc2c(cnn2C)c(=O)[nH]1)C(C)COC (stereo not given) | -7.19%
CCCNC(=O)CN1CCC(NC(=O)c2cc(CC)ccc2O)CC1 | -6.46%
